From patent US11865114B2, “Method for treating diseases using SMARCA2/4 degraders” (Aurigene Discovery Technologies Limited, priority 2019, dated 2024)

Key:
Assay type in all cases: cell-based
[1] = tested on: RWPE-1 (ATCC CRL-11609) cells; assay: Anti-proliferative activity by Cell Titer Glo assay in RWPE normal cells
Description: (§1) Determination of Anti-Proliferative Activity of SMARCA2/4 Degrader in Cells by Cell Titer Glo® (Promega) Assay
(§2) The prostate cancer cell lines, Vcap (ATCC #CRL-2876), LNCaP-FGC (ATCC CRL-1740), 22RV1 (ATCC CRL-2505), PC-3 (ATCC CRL-1435), DU-145 (ATCC HTB-81) and RWPE-1 (ATCC CRL-11609) were seeded in 96 well plate flat black clear bottom plates (Corning, Cat. No 3904) using respective complete media. Simultaneously cells were seeded for day 0 measurement.
(§3) On the following day, compound 43 of the present invention was added to cells from 10 mM stocks made in DMSO (Sigma Cat no. D2650). DMSO alone was used a vehicle control. Day 0 plate was terminated on day of compound addition using 50 μl of Cell Titer Glo® reagent (Promega, Cat. no G7572). Compound was incubated for 8 days, except for 22RV1 which was incubated for 6 days. Media was replenished with fresh compound on day 4. After the compound incubation, assay was terminated using 50 μl of CellTiter Glo® reagent. CellTiter Glo® Luminescent reagent determines the number of viable cells based on quantitation of ATP present which is an indicator of cell number and metabolic activity. Luminescence readings were taken in fluorescent plate reader.
(§4) Day 0 CTG measurement is designated as time zero (Tz), final CTG measurement in Vehicle control is designated as control growth DMSO (C) and test growth in the presence of drug at the nine concentration levels is designated as (Ti).
(§5) Using the measurements [time zero (Tz), growth control DMSO (C) and test growth in the presence of drug at the nine concentration levels (Ti)] the percentage growth is calculated at each of the drug concentration levels. Percentage response is calculated as: [(Ti−Tz)/(C−Tz)]×100 for Concentrations for which Ti≥Tz [(Ti−Tz)/Tz]×100 for Concentrations for which Ti<Tz
(§6) Three dose response parameters are calculated for each experimental agent. […]
(§7) Compound 43 of the present invention was analyzed against several cell lines representing normal and prostate cancer cells. […]

[2] = tested on: DU-145 (ATCC HTB-81) cells; assay: Anti-proliferative activity by Cell Titer Glo assay in DU145 cells
Description: as §1, §2, §3, §4, §5, §6, §7

[3] = tested on: 22RV1 (ATCC CRL-2505) cells; assay: Anti-proliferative activity by Cell Titer Glo assay in 22RV1 cells
Description: as §1, §2, §3, §4, §5, §6, §7

[4] = tested on: PC-3 (ATCC CRL-1435) cells; assay: Anti-proliferative activity by Cell Titer Glo assay in PC3 cells
Description: as §1, §2, §3, §4, §5
(§8) Three dose response parameters are calculated for each experimental agent. Growth inhibition of 50% (GI50) is calculated from [(Ti−Tz)/(C−Tz)]×100=50, which is the drug concentration resulting in a 50% reduction in the net luminescence increase (measured ATP) in control cells during the drug incubation.
(§9) The LC50 (concentration of drug resulting in a 50% reduction in the measured ATP at the end of the drug treatment as compared to that at the beginning) indicating a net loss of cells following treatment is calculated from [(Ti−Tz)/Tz]×100=−50.
(§10) Compound 43 of the present invention was analyzed against several cell lines representing normal and prostate cancer cells. The cell lines used in the present invention are harboring one or more tumor specific alterations such as presence of AR, PTEN mutations or TMPRSS2-ERG fusion which are presented below.

[5] = tested on: Vcap (ATCC #CRL-2876) cells; assay: Anti-proliferative activity by Cell Titer Glo assay in VCap cells
Description: as §1, §2, §3, §4, §5, §8, §9, §10

[6] = tested on: LNCaP-FGC (ATCC CRL-1740) cells; assay: Anti-proliferative activity by Cell Titer Glo assay in LNCaP-FGC cells
Description: as §1, §2, §3, §4, §5, §8, §9, §10

For `Cc1ncsc1-c1ccc([C@H](C)NC(=O)[C@@H]2C[C@@H](O)CN2C(=O)[C@@H](NC(=O)CN2CCN(c3cc(-c4ccccc4O)nnc3N)CC2)C(C)(C)C)cc1` [Compound 43], which GI50 ([1]; Homo sapiens, RWPE-1, 192 h, RWPE (Normal) cells, normal AR, no PTEN mutation, no TMPRSS2-ERG fusion, 8 days incubation) is on record?
The GI50 was 260 nM.

And the Observed cell killing ([1]; RWPE (Normal) cells, 8 days incubation)?
The Observed cell killing was “No”.

What about the “Inhibition of cell growth and cell killing (in words)” value (“Inhibition” below) ([1]; normal cell (RWPE), FIG. 1) of the same compound?
Its value is “did not show any inhibition and cell killing”.

What about the “Inhibition” value ([2]; DU145, none of the tumor specific alterations, FIG. 2) of the same compound?
The value was “neither inhibition of cell growth nor cell killing was observed”.

What about the Observed cell killing ([2]; DU145 cells, 8 days incubation) of the same compound?
The Observed cell killing was “No”.

And the GI50 ([2]; Homo sapiens, DU-145, 192 h, DU145 cells, none of the tumor-specific alterations, 8 days incubation)?
Its GI50 is over 10000 nM.

What about the “Inhibition” value ([3]; 22RV1, one tumor-specific alteration, FIG. 3A) of the same compound?
The value was “potently inhibited with no or moderate cell killing”.

What about the Observed cell killing ([3]; 22RV1 cells, 6 days incubation) of the same compound?
The Observed cell killing was “No”.

What about the GI50 ([3]; Homo sapiens, 144 h, 22RV1 cells, AR dependence +, 6 days incubation) of the same compound?
Its GI50 is 14 nM.

What about the GI50 ([4]; Homo sapiens, PC-3, 192 h, PC3 cells, PTEN mutation +, 8 days incubation) of the same compound?
The GI50 was 51 nM.

And the CC50 ([4]; Homo sapiens, PC-3, PC3 cells, 50% reduction in measured ATP versus day 0, 8 days incubation, read-out: LC50 (the source's name))?
Its CC50 is 3410 nM.

And the “Inhibition” value ([4]; PC3, one tumor-specific alteration, FIG. 3B)?
Its value is “potently inhibited with no or moderate cell killing”.

What about the Observed cell killing ([4]; PC3 cells, 8 days incubation) of the same compound?
The Observed cell killing was “Yes”.

What about the GI50 ([5]; Homo sapiens, 192 h, VCap cells, AR dependence +, TMPRSS2-ERG fusion +, 8 days incubation) of the same compound?
The GI50 was 3 nM.

And the CC50 ([5]; Homo sapiens, VCap cells, 50% reduction in measured ATP versus day 0, 8 days incubation, read-out: LC50 (the source's name))?
The CC50 was 11 nM.

What about the Observed cell killing ([5]; VCap cells, 8 days incubation) of the same compound?
Its Observed cell killing is “Yes”.

What about the “Inhibition” value ([5]; VCap, two tumor specific alterations, FIG. 4A) of the same compound?
Its value is “both growth and cell killing were potently impacted”.

And the GI50 ([6]; 192 h, LnCapFGC cells, AR dependence +, PTEN mutation +, 8 days incubation)?
The GI50 was 5 nM.

And the CC50 ([6]; LnCapFGC cells, 50% reduction in measured ATP versus day 0, 8 days incubation, read-out: LC50 (the source's name))?
Its CC50 is 22 nM.

And the Observed cell killing ([6]; LnCapFGC cells, 8 days incubation)?
The Observed cell killing was “Yes”.

What about the “Inhibition” value ([6]; LnCapFGC, two tumor specific alterations, FIG. 4B) of the same compound?
Its value is “both growth and cell killing were potently impacted”.
